One assay deals with SK-HEP1. The assay can be described thus: cells. Type of assay: functional, cell-based. The note with it: Homo sapiens, SK-HEP1, 48 h.
The subject of the next assay is PC-3. The assay can be described thus: cells. Particulars: Homo sapiens, PC-3, 48 h. Type of assay: functional, cell-based.
In another assay the test system is A549. The assay can be described thus: cells. In kind it is functional, cell-based. The note with it: Homo sapiens, A549, 48 h.
Another assay is described as follows: cells. In kind it is functional. Particulars: Homo sapiens, Endothelial progenitor cell; time 48 hrs.
Assay [1] has as its target T1, Protein deacetylase HDAC6 (Homo sapiens, UniProt Q9UBN7).
T1 sequence (Q9UBN7 whole entry): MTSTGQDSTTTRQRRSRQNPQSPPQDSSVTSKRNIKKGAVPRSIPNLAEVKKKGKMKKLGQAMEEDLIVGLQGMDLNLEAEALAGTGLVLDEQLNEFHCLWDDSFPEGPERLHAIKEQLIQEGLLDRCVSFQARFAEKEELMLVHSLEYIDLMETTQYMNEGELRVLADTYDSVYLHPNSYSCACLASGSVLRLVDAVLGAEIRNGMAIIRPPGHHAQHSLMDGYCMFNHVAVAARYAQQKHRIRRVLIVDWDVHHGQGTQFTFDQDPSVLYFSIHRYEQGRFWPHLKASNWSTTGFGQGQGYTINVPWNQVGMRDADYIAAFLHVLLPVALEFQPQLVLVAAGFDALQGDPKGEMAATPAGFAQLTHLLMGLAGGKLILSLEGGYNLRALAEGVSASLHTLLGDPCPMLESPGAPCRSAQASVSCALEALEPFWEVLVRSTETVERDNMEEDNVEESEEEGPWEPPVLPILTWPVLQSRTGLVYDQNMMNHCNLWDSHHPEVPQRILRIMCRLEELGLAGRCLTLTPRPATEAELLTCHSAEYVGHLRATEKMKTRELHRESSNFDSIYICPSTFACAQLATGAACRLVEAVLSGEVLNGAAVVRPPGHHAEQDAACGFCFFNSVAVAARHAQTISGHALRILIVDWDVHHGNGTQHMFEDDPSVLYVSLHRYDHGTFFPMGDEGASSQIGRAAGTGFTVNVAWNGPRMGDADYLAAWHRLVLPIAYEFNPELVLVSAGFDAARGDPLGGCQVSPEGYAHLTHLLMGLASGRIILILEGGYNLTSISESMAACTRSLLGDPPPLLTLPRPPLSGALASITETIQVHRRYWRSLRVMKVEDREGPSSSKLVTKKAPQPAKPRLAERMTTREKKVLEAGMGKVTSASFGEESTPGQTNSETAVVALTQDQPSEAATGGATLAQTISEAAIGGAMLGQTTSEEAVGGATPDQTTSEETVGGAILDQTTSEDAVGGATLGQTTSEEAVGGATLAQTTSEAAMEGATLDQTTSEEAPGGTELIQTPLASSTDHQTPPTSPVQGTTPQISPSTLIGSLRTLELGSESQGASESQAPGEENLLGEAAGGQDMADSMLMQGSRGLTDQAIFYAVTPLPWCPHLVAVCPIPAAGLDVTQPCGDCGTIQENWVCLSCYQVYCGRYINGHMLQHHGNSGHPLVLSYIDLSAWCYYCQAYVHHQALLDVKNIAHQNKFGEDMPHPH
The assay can be described thus: Inhibition of full length recombinant N-terminal GST-tagged human HDAC6 expressed in baculovirus infected Sf9 insect cells using RHK-K(Ac)-AMC as substrate measured after 90 mins by fluorescence plate reader assay.

Assay [2] deals with T2, Vascular endothelial growth factor receptor 2 (Homo sapiens, UniProt P35968).
T2 sequence (P35968 whole entry): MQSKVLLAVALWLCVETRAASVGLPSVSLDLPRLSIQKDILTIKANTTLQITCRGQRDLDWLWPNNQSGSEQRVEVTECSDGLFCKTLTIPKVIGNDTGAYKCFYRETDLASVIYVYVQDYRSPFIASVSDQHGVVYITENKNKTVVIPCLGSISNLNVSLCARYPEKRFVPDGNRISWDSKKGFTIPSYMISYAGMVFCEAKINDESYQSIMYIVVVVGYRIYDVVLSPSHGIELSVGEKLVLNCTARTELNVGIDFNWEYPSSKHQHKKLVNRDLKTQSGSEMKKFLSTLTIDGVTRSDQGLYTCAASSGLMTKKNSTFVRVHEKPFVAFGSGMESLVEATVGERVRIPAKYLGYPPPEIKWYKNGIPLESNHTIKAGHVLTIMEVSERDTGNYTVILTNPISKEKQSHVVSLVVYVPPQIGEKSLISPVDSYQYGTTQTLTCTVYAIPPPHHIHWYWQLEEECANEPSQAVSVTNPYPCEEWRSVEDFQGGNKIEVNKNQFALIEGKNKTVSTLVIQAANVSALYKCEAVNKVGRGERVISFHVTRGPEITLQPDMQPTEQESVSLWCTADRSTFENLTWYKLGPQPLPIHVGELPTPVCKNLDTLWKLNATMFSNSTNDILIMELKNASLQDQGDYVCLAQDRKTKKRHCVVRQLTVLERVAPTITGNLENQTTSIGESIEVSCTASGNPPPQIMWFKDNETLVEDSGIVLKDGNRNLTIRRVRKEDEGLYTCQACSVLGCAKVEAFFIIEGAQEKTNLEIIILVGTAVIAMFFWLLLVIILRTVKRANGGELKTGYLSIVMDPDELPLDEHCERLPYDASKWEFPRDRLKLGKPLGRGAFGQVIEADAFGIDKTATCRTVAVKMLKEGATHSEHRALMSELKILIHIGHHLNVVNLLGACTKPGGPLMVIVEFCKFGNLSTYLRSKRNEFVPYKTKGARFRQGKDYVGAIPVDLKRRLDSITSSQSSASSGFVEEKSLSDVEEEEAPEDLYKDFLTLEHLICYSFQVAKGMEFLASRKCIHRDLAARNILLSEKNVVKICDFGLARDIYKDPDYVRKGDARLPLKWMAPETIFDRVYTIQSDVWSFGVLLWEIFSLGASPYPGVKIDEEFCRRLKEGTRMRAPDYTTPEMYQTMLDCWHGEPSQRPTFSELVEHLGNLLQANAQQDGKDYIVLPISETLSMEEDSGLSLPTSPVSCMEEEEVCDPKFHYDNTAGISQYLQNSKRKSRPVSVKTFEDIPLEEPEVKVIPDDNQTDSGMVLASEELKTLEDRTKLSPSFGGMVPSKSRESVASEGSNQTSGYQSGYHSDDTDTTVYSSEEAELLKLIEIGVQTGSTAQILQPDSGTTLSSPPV
Another assay deals with T3, Histone deacetylase 8 (Homo sapiens, UniProt Q9BY41).
T3 sequence (Q9BY41 whole entry): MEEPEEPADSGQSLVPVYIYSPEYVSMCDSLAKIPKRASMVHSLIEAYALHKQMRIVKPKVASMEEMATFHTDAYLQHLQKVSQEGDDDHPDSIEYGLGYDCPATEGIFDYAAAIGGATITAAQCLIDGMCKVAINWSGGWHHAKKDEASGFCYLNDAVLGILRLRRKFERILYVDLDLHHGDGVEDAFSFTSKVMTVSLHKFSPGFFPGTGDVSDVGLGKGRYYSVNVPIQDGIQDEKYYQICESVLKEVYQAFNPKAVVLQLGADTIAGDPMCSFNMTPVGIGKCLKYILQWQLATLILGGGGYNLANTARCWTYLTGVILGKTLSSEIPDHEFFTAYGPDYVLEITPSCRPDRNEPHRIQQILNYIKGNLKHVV
The assay can be described thus: Inhibition of recombinant C-terminal His-fusion tagged/N-terminal Strep2 tagged human HDAC8 (1 to 377 residues) expressed in insect cells using RHK-K(Ac)-K(Ac)-AMC as substrate measured after 60 mins by fluorescence plate reader assay.

The species entered for assay [3] is Homo sapiens. The assay can be described thus: Selectivity ratio of IC50 for recombinant C-terminal His-fusion tagged/N-terminal Strep2 tagged human HDAC8 (1 to 377 residues) expressed in insect cells to IC50 full length recombinant N-terminal GST-tagged human HDAC6 expressed in baculovirus infected Sf9 insect cells.
The target of assay [4] is T4, Histone deacetylase (Homo sapiens) (UniProt Q13547+O15379+Q9UBN7+Q92769+Q9UQL6+Q8WUI4+Q9BY41+Q96DB2+P56524+Q9UKV0+Q969S8). The assay can be described thus: Inhibition of HDAC in human A549 cells assessed as increase in acetylated alpha tubulin level measured after 24 hrs by Western blot analysis. Type of assay: cell-based. The note with it: dose 5-10 µM. (In general: A western blot detects proteins with antibodies after separation by electrophoresis.)

Assay [5] deals with T4, Histone deacetylase (Homo sapiens). The assay can be described thus: Inhibition of HDAC in human PC-3 cells assessed as increase in acetylated alpha tubulin level measured after 24 hrs by Western blot analysis. In kind it is cell-based. The note with it: dose 5-10 µM.
The target is the same in assay [6]. The assay can be described thus: Inhibition of HDAC in human SK-HEP1 cells assessed as increase in acetylated alpha tubulin level measured after 24 hrs by Western blot analysis. Type of assay: cell-based. Particulars: dose 5-10 µM.
The target is the same in assay [7]. The assay can be described thus: Inhibition of HDAC in human A549 cells assessed as increase in acetylated histone H3 level measured after 24 hrs by Western blot analysis. Type of assay: cell-based. Particulars: dose 5-10 µM.
Assay [8] shares this target. The assay can be described thus: Inhibition of HDAC in human PC-3 cells assessed as increase in acetylated histone H3 level measured after 24 hrs by Western blot analysis. In kind it is cell-based. The note with it: dose 5-10 µM.
Assay [9] shares this target. The assay can be described thus: Inhibition of HDAC in human SK-HEP1 cells assessed as increase in acetylated histone H3 level measured after 24 hrs by Western blot analysis. Type of assay: cell-based. The note with it: dose 5-10 µM.
Another assay deals with Histone deacetylase 1 (Homo sapiens, UniProt Q13547). The assay can be described thus: Inhibition of full length recombinant C-terminal FLAG/His-tagged human HDAC1 expressed in baculovirus infected Sf21 insect cells using RHK-K(Ac)-AMC as substrate measured after 60 mins by fluorescence plate reader assay.
Histone deacetylase 1, sequence (Q13547 whole entry, the tested form may be a part): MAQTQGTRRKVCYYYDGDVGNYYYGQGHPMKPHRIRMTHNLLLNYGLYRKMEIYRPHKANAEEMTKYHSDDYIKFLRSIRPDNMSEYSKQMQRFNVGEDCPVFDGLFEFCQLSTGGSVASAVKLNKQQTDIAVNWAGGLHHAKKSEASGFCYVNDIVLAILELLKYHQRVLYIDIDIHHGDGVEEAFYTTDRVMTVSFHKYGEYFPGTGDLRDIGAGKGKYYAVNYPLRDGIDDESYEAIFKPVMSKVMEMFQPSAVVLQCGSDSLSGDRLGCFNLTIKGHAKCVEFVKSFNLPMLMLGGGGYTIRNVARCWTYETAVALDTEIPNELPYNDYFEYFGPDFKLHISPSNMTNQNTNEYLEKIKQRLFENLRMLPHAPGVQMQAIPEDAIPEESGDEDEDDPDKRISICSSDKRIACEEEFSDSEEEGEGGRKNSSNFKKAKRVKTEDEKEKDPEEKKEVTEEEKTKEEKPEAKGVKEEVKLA
In another assay the target is Histone deacetylase 2 (Homo sapiens, UniProt Q92769). The assay can be described thus: Inhibition of full length recombinant C-terminal GST-fusion-tagged human HDAC2 expressed in insect cells using RHK-K(Ac)-AMC as substrate measured after 60 mins by fluorescence plate reader assay.
Histone deacetylase 2, sequence (Q92769 whole entry, the tested form may be a part): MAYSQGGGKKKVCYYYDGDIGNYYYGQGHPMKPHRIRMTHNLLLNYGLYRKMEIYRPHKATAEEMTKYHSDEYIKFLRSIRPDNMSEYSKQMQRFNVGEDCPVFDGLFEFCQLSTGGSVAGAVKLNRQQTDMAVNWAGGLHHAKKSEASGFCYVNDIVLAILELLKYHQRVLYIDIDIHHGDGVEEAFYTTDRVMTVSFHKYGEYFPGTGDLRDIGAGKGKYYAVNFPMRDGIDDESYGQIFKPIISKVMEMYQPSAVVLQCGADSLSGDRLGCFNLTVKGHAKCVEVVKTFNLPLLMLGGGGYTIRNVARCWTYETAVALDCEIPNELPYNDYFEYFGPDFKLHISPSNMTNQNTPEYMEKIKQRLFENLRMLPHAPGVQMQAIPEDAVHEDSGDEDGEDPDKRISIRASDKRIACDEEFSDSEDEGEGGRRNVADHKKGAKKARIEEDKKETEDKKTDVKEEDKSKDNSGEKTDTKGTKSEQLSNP
Assay [10] is filed under the species Homo sapiens. The assay can be described thus: Selectivity ratio of IC50 for full length recombinant C-terminal FLAG/His-tagged human HDAC1 expressed in baculovirus infected Sf21 insect cells to IC50 for full length recombinant N-terminal GST-tagged human HDAC6 expressed in baculovirus infected Sf9 insect cells.
For assay [11], the species on record is Homo sapiens. The assay can be described thus: Selectivity ratio of IC50 for full length recombinant C-terminal GST-fusion-tagged human HDAC2 to IC50 for full length recombinant N-terminal GST-tagged human HDAC6 expressed in baculovirus infected Sf9 insect cells.
Assay [12] concerns Endothelial progenitor cell. The assay can be described thus: Antiangiogenesis activity in human Endothelial progenitor cells assessed as retarded capillary like tube formation measured for 24 hrs by microscopic analysis. The note with it: dose 5-10 µM. Type of assay: functional, tissue-based.
Assay [13] has as its target T2, Vascular endothelial growth factor receptor 2. The assay can be described thus: Inhibition of VEGFR2 phosphorylation in human Endothelial progenitor cells at 5 to 10 uM measured after 10 mins by Western blot analysis. In kind it is tissue-based. The note with it: Endothelial progenitor cell, dose 5-10 µM.

Here are results for 15 compounds from ChEMBL document CHEMBL5055657, “Effect of phenylurea hydroxamic acids on histone deacetylase and VEGFR-2” (Bioorg Med Chem, 2021).

One may read the IC50 as the concentration at which inhibition is half-maximal. By GI50 is commonly meant the concentration at which growth is held to half of that of the control.

In the case of `O=C(CCCCCCC(=O)Nc1ccc(NC(=O)Nc2ccc(Cl)c(C(F)(F)F)c2)cc1)NO`, the IC50 stood at 8.1 µM in the assay with SK-HEP1, 4.6 µM in the assay with PC-3 and 9.5 µM in the assay on A549. Further, the GI50 in the assay “cells” stood at 4.5 µM.

Take `O=C(/C=C/c1ccc(CN2CCc3cc(NC(=O)Nc4ccc(Cl)c(C(F)(F)F)c4)ccc32)cc1)NO`: the IC50 came to 3.5 µM in the assay on SK-HEP1, 2.3 µM in the assay on PC-3, 2.7 µM in the assay with A549 and 1.14 µM in [1]. This compound also showed a GI50 in “cells” of 1.2 µM.

Take `O=C(Nc1ccc(C(=O)NO)cc1)Nc1ccc(Cl)c(C(F)(F)F)c1`: the IC50 with SK-HEP1 came to 3.8 µM; with PC-3 it was 3.1 µM; with A549, 7.2 µM. In the assay “cells”, halving of growth (GI50) required 1.3 µM.

For the compound `O=C(CCCCC(=O)Nc1ccc(NC(=O)Nc2ccc(Cl)c(C(F)(F)F)c2)cc1)NO`, the IC50 in the assay on SK-HEP1, with PC-3 and in the assay on A549 was above 10 µM in each case. For the same compound, the GI50 in the assay “cells” is above 10 µM.

For `CNC(=O)c1cc(Oc2ccc(NC(=O)Nc3ccc(Cl)c(C(F)(F)F)c3)cc2)ccn1` [SORAFENIB], the IC50 with SK-HEP1 is 7.3 µM; in the assay on PC-3 it was 6.3 µM; in the assay on A549 it was 5 µM. Also, the GI50 in the assay “cells” amounted to 5 µM.

In the case of `O=C(Nc1ccc2c(c1)CCCN2c1ccc(C(=O)NO)cc1)Nc1ccc(Cl)c(C(F)(F)F)c1`, the IC50 in the assay with SK-HEP1 amounted to 3.4 µM; in the assay on PC-3, 3 µM; in the assay with A549 it was 2.9 µM; in assay [1], 1.2 µM; in assay [2] it was 13.2 µM. The compound further came in with a GI50 in the assay “cells” of 1 µM.

For the compound `O=C(CCCC(=O)Nc1ccc(NC(=O)Nc2ccc(Cl)c(C(F)(F)F)c2)cc1)NO`, the IC50 with SK-HEP1, with PC-3 and in the assay with A549 was above 10 µM in each case. This compound also gave a GI50 in the assay “cells” above 10 µM.

For `O=C(Nc1ccc2c(c1)N(Cc1ccc(C(=O)NO)cc1)CC2)Nc1ccc(Cl)c(C(F)(F)F)c1`, the IC50 was 4.5 µM in the assay on SK-HEP1; 3.1 µM with PC-3; 2.8 µM with A549; 1.71 µM on Histone deacetylase 8; 0.251 µM in assay [1]. The Ratio IC50 in the assay listed under Homo sapiens [3] was determined as 6.8. Further, the GI50 in “cells” turned out to be 1.4 µM. For the same compound, the inhibition result in assay [4], in assay [5], in assay [6], in assay [7], in assay [8] and in assay [9] was “Dose-dependent effect” each time.

As to `O=C(Nc1ccc(NCc2ccc(C(=O)NO)cc2)cc1)Nc1ccc(Cl)c(C(F)(F)F)c1`, the IC50 with SK-HEP1 turned out to be 7.2 µM; in the assay on PC-3, 3.8 µM; in the assay on A549, 4.3 µM. In addition, the GI50 in “cells” turned out to be 2.8 µM.

Turning to `O=C(/C=C/c1ccc(NC(=O)Nc2ccc(Cl)c(C(F)(F)F)c2)cc1)NO`, the IC50 in the assay with SK-HEP1 is 3.2 µM; in the assay on PC-3, 1.9 µM; in the assay with A549, 3.4 µM; on Histone deacetylase 1, 7.23 µM; on Histone deacetylase 2, above 10 µM; at Histone deacetylase 8, 1.99 µM. The IC50 in assay [1] was determined as 0.166 µM; in [2], 13.2 µM. Also, the figures for the Ratio IC50 in the assay listed under Homo sapiens [10], in the assay filed under Homo sapiens [11] and in the assay filed under Homo sapiens [3] were 43.6, above 60.2 and 12, respectively. In “cells”, this compound had a GI50 of 1 µM. In addition, the inhibition entry in assay [4], in assay [5], in [6], in assay [7], in [8] and in [9] was “Dose-dependent effect” each time. In addition, the inhibition entry in [13] was “Dose-dependent effect”. In addition, the Activity entry in assay [12] is “Dose-dependent effect”.

In the case of `O=C(Nc1ccc2c(c1)CCN2c1ccc(C(=O)NO)cc1)Nc1ccc(Cl)c(C(F)(F)F)c1`, the IC50 was determined as 4.1 µM in the assay with SK-HEP1, 3.8 µM in the assay on PC-3, 3.4 µM with A549 and 0.825 µM in [1]. In “cells”, this compound displayed a GI50 of 2 µM.

For the compound `O=C(Nc1ccc(Nc2ncc(C(=O)NO)cn2)cc1)Nc1ccc(Cl)c(C(F)(F)F)c1`, the IC50 in the assay on SK-HEP1, in the assay on PC-3 and in the assay on A549 was above 10 µM each time. In “cells”, this compound yielded a GI50 of 5.8 µM.

With `O=C(Nc1ccc2c(c1)CCCN2Cc1ccc(C(=O)NO)cc1)Nc1ccc(Cl)c(C(F)(F)F)c1`, the IC50 in the assay with SK-HEP1 stood at 4.5 µM; in the assay with PC-3, 3.2 µM; with A549, 3 µM. For the same compound, it took 1.4 µM to inhibit growth in “cells” by half (GI50).

Take `O=C(Nc1ccc2c(c1)CCN2Cc1ccc(C(=O)NO)cc1)Nc1ccc(Cl)c(C(F)(F)F)c1`: the values for the IC50 in the assay with SK-HEP1, with PC-3 and in the assay on A549 were 4.6 µM, 3.4 µM and 3.1 µM, respectively. Besides, the GI50 in “cells” was determined as 1.6 µM.

In the case of `O=C(CCCCCC(=O)Nc1ccc(NC(=O)Nc2ccc(Cl)c(C(F)(F)F)c2)cc1)NO`, the IC50 in the assay with SK-HEP1, in the assay with PC-3 and in the assay on A549 was above 10 µM throughout. The compound further displayed a GI50 in the assay “cells” above 10 µM.
